Test results reported in patent US20240209028A1, “CNP COMPOUNDS” (priority 2022, published 2024).
Starred links: 1 amine or outer side, 2 acyl side, 3 side chain; linkers in the order of their positions; H or OH if unused. Positions of bridges follow the written chain, without caps; N, C: chain ends. Residues, ends and D or L forms follow the SMILES beside them. *: point of attachment. C18 diacid = O=C(O)CCCCCCCCCCCCCCCCC(=O)*; γGlu = O=C(O)[C@H](CCC(=O)[*:2])N[*:1]

Assay: Mouse growth study (tail and body length)
Format: in vivo, mice (C57BL/6J)
Details: for body length higher compared to control group: 35 days; for change in tail length (from day 0) increased compared to control animals: after 35 days; for Tail length, Mean (%) change from day 0 / Body length, Mean (%) change from day 0: C57BL/6J mice
Description: The purpose of this study was to evaluate growth in mice after treatment with two doses of CNP compound.
Procedure: Mice (C57BL/6J, male, age 4 weeks; n=10) received daily subcutaneous injections of compound 9482 or vehicle for 35 days. Formulations were prepared according to the principles described in General Methods of Preparation—Method G (30 and 70 nmol/kg, 10 mL/kg; Formulation buffer 8 mM sodium phosphate, 250 mM glycerol, 0.007% polysorbate 20, pH 7.4). Body weight and tail and body length were measured weekly throughout the study. The increase in growth was expressed as percentage change from day (mean (SD)).
In Table 28, increase in tail length is expressed as percentage change from day 0 (mean (SD)). Statistically significant differences are indicated compared to control group (two-way ANOVA).
In Table 29, increase in body length is expressed as percentage change from day 0 (mean (SD)). Statistically significant differences are indicated compared to control group (two-way ANOVA).

[1] = both 30 and 70 nmol/kg daily s.c., p<0.05

For `CC[C@H](C)[C@@H]1NC(=O)[C@H](CCCNC(=N)N)NC(=O)[C@H](CC(=O)O)NC(=O)[C@H](CC(C)C)NC(=O)[C@@H]2CCCN2C(=O)[C@H](CC(C)C)NC(=O)CNC(=O)[C@H](Cc2ccccc2)NC(=O)[C@@H](NC(=O)CNC(=O)[C@H](CO)NC(=O)[C@H](CO)NC(=O)[C@H](CC(C)C)NC(=O)CNC(=O)[C@H](CCCCN)NC(=O)[C@H](CCCCN)NC(=O)[C@H](CCC(N)=O)NC(=O)[C@H](C)NC(=O)CNC(=O)[C@H](CCCCN)NC(=O)[C@H](Cc2ccc(O)cc2)NC(=O)[C@H](CCCCN)NC(=O)[C@H](CCCNC(=N)N)NC(=O)[C@H](C)NC(=O)[C@H](CCC(N)=O)NC(=O)[C@@H]2CCCN2C(=O)[C@H](Cc2c[nH]cn2)NC(=O)[C@H](CCC(=O)O)NC(=O)[C@H](CCC(N)=O)NC(=O)CC[C@H](NC(=O)CC[C@H](NC(=O)CC[C@H](NC(=O)CC[C@H](NC(=O)CC[C@H](NC(=O)CCCCCCCCCCCCCCCCC(=O)O)C(=O)O)C(=O)O)C(=O)O)C(=O)O)C(=O)O)CSSC[C@@H](C(=O)O)NC(=O)CNC(=O)[C@H](CC(C)C)NC(=O)CNC(=O)[C@H](CO)NC(=O)[C@H](CC(C)C)NC(=O)[C@H](CO)NC(=O)CNC1=O` [compound 9482] ({C18 diacid-γGlu-γGlu-γGlu-γGlu-γGlu}-QEHPQARKYKGAQKKGLSSGCFGLPLDRIGSLSGLGC-OH; disulfide 21-37), which “body length higher compared to control group” value (30 nmol/kg daily s.c.) is on record?
Its value is 30%.

And the “change in tail length (from day 0) increased compared to control animals” value (30 nmol/kg daily s.c.)?
Its value is 45%.

What about the “Tail length, Mean (%) change from day 0” value (30 nmol/kg daily s.c., day 7) of the same compound?
Its value is 11.8%.

What about the “Body length, Mean (%) change from day 0” value (30 nmol/kg daily s.c., day 8) of the same compound?
Its value is 10.2%.

What about the “Tail length, Mean (%) change from day 0” value (30 nmol/kg daily s.c., day 14) of the same compound?
Its value is 16.0%.

And the “Body length, Mean (%) change from day 0” value (30 nmol/kg daily s.c., day 18)?
The value was 17.5%.

And the “Tail length, Mean (%) change from day 0” value (30 nmol/kg daily s.c., day 21)?
The value was 24.1%.

What about the “Body length, Mean (%) change from day 0” value (30 nmol/kg daily s.c., day 25) of the same compound?
The value was 22.5%.

What about the “Tail length, Mean (%) change from day 0” value (30 nmol/kg daily s.c., day 28) of the same compound?
The value was 25.6%.

And the “Body length, Mean (%) change from day 0” value (30 nmol/kg daily s.c., day 35)?
Its value is 27.4%.

What about the “Tail length, Mean (%) change from day 0” value (30 nmol/kg daily s.c., day 35) of the same compound?
Its value is 28.5%.

What about the “body length higher compared to control group” value (70 nmol/kg daily s.c.) of the same compound?
Its value is 67%.

And the “change in tail length (from day 0) increased compared to control animals” value (70 nmol/kg daily s.c.)?
The value was 83%.

And the “Tail length, Mean (%) change from day 0” value (70 nmol/kg daily s.c., day 7)?
The value was 14.3%.

And the “Body length, Mean (%) change from day 0” value (70 nmol/kg daily s.c., day 8)?
Its value is 12.8%.

What about the “Tail length, Mean (%) change from day 0” value (70 nmol/kg daily s.c., day 14) of the same compound?
The value was 20.3%.

And the “Body length, Mean (%) change from day 0” value (70 nmol/kg daily s.c., day 18)?
The value was 21.5%.

And the “Tail length, Mean (%) change from day 0” value (70 nmol/kg daily s.c., day 21)?
Its value is 29.0%.

And the “Body length, Mean (%) change from day 0” value (70 nmol/kg daily s.c., day 25)?
Its value is 29.0%.

And the “Tail length, Mean (%) change from day 0” value (70 nmol/kg daily s.c., day 28)?
The value was 32.0%.

And the “Body length, Mean (%) change from day 0” value (70 nmol/kg daily s.c., day 35)?
Its value is 35.3%.

What about the “Tail length, Mean (%) change from day 0” value (70 nmol/kg daily s.c., day 35) of the same compound?
The value was 35.7%.

And the “time after which body length was significantly increased compared to control” value [1]?
The value was 18 days.

And the “time after which tail length was significantly increased compared to control” value [1]?
The value was 7 days.
